Measurements: the NIST ThermoML archive (doi:10.1016/j.jct.2004.10.011)

Assay: xn = mol fraction of the nth substance listed
Settings: 308.15 K, Liquid, Vibrating tube method

CCC(=O)c1ccccc1 [ethyl phenyl ketone] + Cc1ccccc1
mass density [kg/m3]
Settings	x2 = 0	x2 = 0.1048	x2 = 0.2025	x2 = 0.3006	x2 = 0.3991	x2 = 0.4998	x2 = 0.6004	x2 = 0.7036	x2 = 0.8028	x2 = 0.902
100 kPa	996.8	984.8	973.6	961.5	948.7	934.98	920.13	904.3	888.2	871
2130 kPa	998	986	974.8	962.8	950	936.3	921.52	905.8	889.7	872.5
4150 kPa	999.2	987.3	976.1	964.1	951.3	937.68	922.91	907.2	891.1	874.1
6180 kPa	1000.4	988.5	977.3	965.3	952.6	939.04	924.29	908.7	892.6	875.6
8210 kPa	1001.6	989.7	978.5	966.6	953.9	940.34	925.65	910.1	894	877.1
10230 kPa	1002.8	990.9	979.8	967.8	955.2	941.64	927	911.4	895.5	878.6
11250 kPa	1003.4	991.5	980.4	968.4	955.7	942.3	927.66	912.1	896.2	879.3
12260 kPa	1003.9	992.1	981	969	956.4	942.94	928.33	912.8	896.9	880
14290 kPa	1005.1	993.3	982.2	970.3	957.6	944.22	929.64	914.1	898.3	881.5
16310 kPa	1006.2	994.4	983.3	971.4	958.9	945.46	930.91	915.4	899.6	882.9
18340 kPa	1007.3	995.5	984.5	972.6	960	946.72	932.19	916.8	901	884.3
20370 kPa	1008.4	996.7	985.6	973.8	961.2	947.92	933.45	918	902.3	885.6
22390 kPa	1009.5	997.8	986.7	974.9	962.4	949.14	934.71	919.3	903.6	887
24420 kPa	1010.6	998.9	987.8	976	963.6	950.33	935.93	920.6	904.9	888.3
26450 kPa	1011.7	1000	988.9	977.2	964.7	951.5	937.14	921.8	906.2	889.7
28470 kPa	1012.8	1001	990	978.3	965.9	952.65	938.32	923	907.4	891
29490 kPa	1013.2	1001.6	990.6	978.8	966.4	953.24	938.92	923.6	908	891.6
30500 kPa	1013.8	1002.1	991.1	979.4	967	953.82	939.51	924.2	908.7	892.2
32530 kPa	1014.8	1003.2	992.2	980.5	968.1	954.96	940.68	925.4	909.9	893.5
34550 kPa	1015.8	1004.2	993.2	981.5	969.2	956.07	941.83	926.6	911.1	894.7
36580 kPa	1016.8	1005.2	994.3	982.6	970.2	957.16	942.97	927.7	912.3	896
38600 kPa	1017.9	1006.2	995.3	983.6	971.3	958.24	944.07	928.9	913.4	897.2
39620 kPa	1018.3	1006.7	995.8	984.1	971.9	958.83	944.64	929.5	914	897.8
